Patent US8497245B2, “Trypsin-like serine protease inhibitors, their preparation and use as selective inhibitors of the clotting factors IIa and Xa” (The Medicines Company (Leipzig) GmbH, priority 2010, dated 2013)
Where a name gives a salt, the structure may show the parent alone.

Columns and labels:
[1] = molecular target: T1, Human Activated Protein C (h aPC) (Homo sapiens, UniProt P04070); assay: Inhibition of human activated protein C (reference enzyme); format: biochemical; settings: Pefachrome PCa substrate
T1 construct: purchased Enzyme Research Laboratories
T1 sequence (P04070 212-450 limits assumed): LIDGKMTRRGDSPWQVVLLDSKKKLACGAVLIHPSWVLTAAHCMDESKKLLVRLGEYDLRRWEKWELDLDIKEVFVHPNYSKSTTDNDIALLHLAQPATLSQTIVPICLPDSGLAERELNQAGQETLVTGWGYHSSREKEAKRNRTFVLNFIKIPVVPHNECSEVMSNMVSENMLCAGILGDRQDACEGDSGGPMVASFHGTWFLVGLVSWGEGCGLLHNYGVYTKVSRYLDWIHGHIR
T1 sequence (P04070 43-197 partner limits assumed): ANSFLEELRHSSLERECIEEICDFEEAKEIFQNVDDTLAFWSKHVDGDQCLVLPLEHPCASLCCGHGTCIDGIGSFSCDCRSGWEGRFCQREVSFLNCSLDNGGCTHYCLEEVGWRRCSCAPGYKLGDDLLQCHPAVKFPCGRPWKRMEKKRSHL
Outline: (§1)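 Chromogenic assay on purified enzyme: p-NA absorbance change at 405 nm gives equilibrium rates, which fitted to a competitive model provide Ki.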

[2] = molecular target: T2, Human plasma kallikrein (h PK) (Homo sapiens, UniProt P03952); assay: Inhibition of human plasma kallikrein (reference enzyme); format: biochemical; settings: S2302 substrate
T2 construct: purchased Enzyme Research Laboratories
T2 sequence (P03952 391-638 limits assumed): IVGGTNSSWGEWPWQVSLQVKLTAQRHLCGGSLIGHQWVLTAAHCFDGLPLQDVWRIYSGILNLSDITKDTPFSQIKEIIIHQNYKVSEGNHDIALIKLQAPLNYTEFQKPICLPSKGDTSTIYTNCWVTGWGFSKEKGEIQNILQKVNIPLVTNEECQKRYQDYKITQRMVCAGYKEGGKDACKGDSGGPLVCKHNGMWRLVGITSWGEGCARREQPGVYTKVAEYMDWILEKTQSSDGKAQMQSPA
T2 sequence (P03952 20-390 partner limits assumed): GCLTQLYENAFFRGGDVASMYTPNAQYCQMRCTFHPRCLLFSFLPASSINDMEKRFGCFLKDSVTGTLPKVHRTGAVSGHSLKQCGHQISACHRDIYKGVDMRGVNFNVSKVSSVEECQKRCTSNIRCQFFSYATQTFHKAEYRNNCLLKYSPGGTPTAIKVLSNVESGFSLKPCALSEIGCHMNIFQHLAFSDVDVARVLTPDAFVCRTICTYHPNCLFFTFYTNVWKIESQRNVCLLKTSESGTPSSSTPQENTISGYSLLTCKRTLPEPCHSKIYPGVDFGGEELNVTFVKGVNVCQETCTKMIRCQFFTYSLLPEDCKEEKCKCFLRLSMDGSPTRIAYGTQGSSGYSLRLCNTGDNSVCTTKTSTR
Outline: as §1

[3] = molecular target: T3, Subcomponent "s" of Human Complement Component 1 (h C1s) (Homo sapiens, UniProt P09871); assay: Inhibition of human C1s (reference enzyme); format: biochemical; settings: S-2314 substrate; read-out: Ki h Cls
T3 construct: purchased Calbiochem
T3 sequence (P09871 438-688 limits assumed): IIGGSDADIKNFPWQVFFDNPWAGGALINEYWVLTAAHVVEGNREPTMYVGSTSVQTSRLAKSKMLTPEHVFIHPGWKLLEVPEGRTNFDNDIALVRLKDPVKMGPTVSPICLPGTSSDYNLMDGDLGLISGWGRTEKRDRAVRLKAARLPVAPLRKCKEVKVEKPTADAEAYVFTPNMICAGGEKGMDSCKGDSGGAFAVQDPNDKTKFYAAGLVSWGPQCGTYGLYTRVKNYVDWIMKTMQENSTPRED
T3 sequence (P09871 16-437 partner limits assumed): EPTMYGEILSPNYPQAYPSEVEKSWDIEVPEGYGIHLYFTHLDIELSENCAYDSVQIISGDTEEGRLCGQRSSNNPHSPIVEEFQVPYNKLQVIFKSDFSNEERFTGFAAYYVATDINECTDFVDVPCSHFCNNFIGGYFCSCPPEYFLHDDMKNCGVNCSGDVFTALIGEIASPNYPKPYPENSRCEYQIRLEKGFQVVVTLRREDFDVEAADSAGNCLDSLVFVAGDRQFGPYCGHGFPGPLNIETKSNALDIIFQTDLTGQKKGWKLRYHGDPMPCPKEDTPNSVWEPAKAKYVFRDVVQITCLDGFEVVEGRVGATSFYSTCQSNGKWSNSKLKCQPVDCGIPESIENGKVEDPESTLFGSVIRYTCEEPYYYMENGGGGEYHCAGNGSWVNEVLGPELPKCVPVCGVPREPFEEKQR
Outline: as §1

[4] = molecular target: T4, Human tissue-type plasminogen activator (h t-PA) (Homo sapiens, UniProt P00750); assay: Inhibition of human tissue-type plasminogen activator (reference enzyme); format: biochemical; settings: Pefachrome tPA substrate; read-out: Ki h t-PA
T4 construct: purchased Boehringer Ingelheim Actilyse
T4 sequence (P00750 36-562): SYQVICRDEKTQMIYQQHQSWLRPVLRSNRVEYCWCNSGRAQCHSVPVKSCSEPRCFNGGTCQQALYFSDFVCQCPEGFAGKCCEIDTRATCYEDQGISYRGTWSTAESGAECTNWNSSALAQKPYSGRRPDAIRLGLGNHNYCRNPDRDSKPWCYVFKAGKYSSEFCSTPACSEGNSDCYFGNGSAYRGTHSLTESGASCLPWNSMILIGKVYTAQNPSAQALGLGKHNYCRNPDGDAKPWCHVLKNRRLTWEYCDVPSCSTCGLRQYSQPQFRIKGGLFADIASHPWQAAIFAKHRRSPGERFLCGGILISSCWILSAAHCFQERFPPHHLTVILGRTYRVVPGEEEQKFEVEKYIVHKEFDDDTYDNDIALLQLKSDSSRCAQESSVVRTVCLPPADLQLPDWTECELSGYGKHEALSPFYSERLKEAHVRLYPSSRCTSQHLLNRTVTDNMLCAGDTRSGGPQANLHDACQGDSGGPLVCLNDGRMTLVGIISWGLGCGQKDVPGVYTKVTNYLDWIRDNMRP
Method: The equilibrium rates were used to calculate the inhibitor/enzyme dissociation constant (Ki values) by parameter fitting in accordance with the rate equation for competitive inhibition using GraFit (version 4 from Erithacus).
Dissociation constants were calculated as described herein.

[5] = molecular target: T5, Human urokinase type plasminogen activator (h u-PA) (Homo sapiens, UniProt P00749); assay: Inhibition of human urokinase type plasminogen activator (reference enzyme); format: biochemical; settings: H-Glu-Gly-Arg-pNA substrate
T5 construct: purchased MEDAC GmbH Urokinase HS medac
Outline: as §1

[6] = molecular target: T6, Subcomponent "r" of Human Complement Component 1 (h C1r) (Homo sapiens, UniProt P00736); assay: Inhibition of human C1r (reference enzyme); format: biochemical; settings: S-2314 substrate; read-out: Ki h Clr
T6 construct: purchased Calbiochem
T6 sequence (P00736 464-705 limits assumed): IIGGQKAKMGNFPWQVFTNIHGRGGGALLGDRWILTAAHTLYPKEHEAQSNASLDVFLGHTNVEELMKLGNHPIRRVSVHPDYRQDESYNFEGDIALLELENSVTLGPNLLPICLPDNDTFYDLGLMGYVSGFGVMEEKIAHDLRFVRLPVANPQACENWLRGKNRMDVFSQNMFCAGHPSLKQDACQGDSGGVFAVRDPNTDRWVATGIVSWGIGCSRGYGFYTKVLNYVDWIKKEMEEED
T6 sequence (P00736 18-463 partner limits assumed): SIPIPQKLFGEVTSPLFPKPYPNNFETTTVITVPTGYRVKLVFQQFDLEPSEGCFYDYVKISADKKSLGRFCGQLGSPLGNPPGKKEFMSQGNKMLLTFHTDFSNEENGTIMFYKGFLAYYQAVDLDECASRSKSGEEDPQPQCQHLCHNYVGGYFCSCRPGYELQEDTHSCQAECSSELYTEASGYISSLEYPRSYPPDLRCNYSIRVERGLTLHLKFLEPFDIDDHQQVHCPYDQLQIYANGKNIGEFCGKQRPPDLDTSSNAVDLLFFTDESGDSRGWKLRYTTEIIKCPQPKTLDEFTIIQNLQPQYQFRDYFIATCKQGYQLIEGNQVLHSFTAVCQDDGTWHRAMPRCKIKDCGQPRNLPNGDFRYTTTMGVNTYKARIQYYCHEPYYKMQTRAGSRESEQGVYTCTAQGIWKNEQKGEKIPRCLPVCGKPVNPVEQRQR
Outline: as §1

[7] = molecular target: T7, Human plasmin (h plasmin) (Homo sapiens, UniProt P00747); assay: Inhibition of human plasmin (reference enzyme); format: biochemical; settings: Chromozym PL substrate
T7 construct: purchased Calbiochem
T7 sequence (P00747 581-810 limits assumed): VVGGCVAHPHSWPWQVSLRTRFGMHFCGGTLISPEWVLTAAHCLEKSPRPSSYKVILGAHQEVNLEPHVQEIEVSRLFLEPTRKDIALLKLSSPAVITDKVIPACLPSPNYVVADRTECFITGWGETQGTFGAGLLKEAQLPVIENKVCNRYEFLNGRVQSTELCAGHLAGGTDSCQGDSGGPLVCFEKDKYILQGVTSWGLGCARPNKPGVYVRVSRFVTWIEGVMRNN
T7 sequence (P00747 97-580 partner limits assumed): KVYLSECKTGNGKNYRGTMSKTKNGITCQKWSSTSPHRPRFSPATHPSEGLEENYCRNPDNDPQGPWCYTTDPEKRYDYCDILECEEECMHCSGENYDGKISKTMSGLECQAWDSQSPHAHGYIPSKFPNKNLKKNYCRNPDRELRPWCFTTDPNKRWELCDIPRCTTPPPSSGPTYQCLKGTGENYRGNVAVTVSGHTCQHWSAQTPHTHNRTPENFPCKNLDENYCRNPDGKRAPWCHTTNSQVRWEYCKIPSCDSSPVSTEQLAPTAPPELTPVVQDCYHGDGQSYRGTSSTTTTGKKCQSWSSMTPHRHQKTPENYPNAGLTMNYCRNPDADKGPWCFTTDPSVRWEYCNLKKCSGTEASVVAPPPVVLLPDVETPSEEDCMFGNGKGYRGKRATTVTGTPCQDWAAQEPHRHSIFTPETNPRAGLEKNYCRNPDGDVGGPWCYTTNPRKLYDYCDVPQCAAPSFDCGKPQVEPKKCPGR
Outline: as §1

human Factor Xa = molecular target: T8, human Factor Xa (Homo sapiens, UniProt P00742); assay: Inhibition constants for human factor Xa, chromogenic substrate assay; format: biochemical; settings: 25° C., Pefachrome FXa substrate, average of at least three determinations; read-out: Ki h FXa
T8 construct: human Factor Xa from Enzyme Research Laboratories; purchased Enzyme Research Laboratories
T8 sequence (P00742 235-488 limits assumed): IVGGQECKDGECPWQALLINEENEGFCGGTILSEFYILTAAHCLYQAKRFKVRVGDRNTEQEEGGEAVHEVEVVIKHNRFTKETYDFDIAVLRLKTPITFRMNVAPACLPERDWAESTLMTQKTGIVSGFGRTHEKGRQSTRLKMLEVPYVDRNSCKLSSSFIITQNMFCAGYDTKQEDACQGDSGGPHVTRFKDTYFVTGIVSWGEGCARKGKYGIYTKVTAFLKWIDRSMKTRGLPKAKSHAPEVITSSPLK
T8 sequence (P00742 41-179 partner limits assumed): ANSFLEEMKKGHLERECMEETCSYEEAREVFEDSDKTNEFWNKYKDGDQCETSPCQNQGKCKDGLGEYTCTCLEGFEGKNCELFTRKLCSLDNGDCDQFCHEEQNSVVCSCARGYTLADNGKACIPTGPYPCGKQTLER
Outline: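 Purified enzyme, chromogenic substrate; buffer 0.05 M Tris/0.154 M NaCl/2% EtOH, pH 8.0. Read-out: p-NA release, A405. Ki from equilibrium rates, competitive-inhibition fit, mean of ≥3 determinations.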

[8] = molecular target: T9, human factor IIa (human alpha-thrombin) (Homo sapiens, UniProt P00734); assay: Inhibition constants for human factor IIa, chromogenic substrate assay; format: biochemical; settings: 25° C., Pefachrome tPA substrate, average of at least three determinations; read-out: Ki h FIIa
T9 construct: human alpha-thrombin from Enzyme Research Laboratories; purchased Enzyme Research Laboratories
Outline: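 Kinetic chromogenic assay with purified human enzymes in 0.05 M Tris, 0.154 M NaCl, 2% ethanol at pH 8.0. Ki was derived by competitive-inhibition fitting of equilibrium p-NA release rates (A405).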

[9] = molecular target: T10, Human urinary kallikrein (h uKK) (Homo sapiens, UniProt P06870); assay: Inhibition of human urinary kallikrein (reference enzyme); format: biochemical; settings: S-2266 substrate
T10 construct: purchased Lee Biosolutions
T10 sequence (P06870 25-262): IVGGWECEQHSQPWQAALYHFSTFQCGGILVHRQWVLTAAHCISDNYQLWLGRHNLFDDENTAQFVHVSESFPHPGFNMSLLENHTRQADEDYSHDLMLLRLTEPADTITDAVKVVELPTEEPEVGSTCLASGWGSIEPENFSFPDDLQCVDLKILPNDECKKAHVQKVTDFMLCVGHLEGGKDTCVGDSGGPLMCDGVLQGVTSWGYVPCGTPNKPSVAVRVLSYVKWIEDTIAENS
Outline: as §1

thrombin and FXa = settings: literature value; cited from earlier work

Structure (SMILES) | Ki [1] | Ki [2] | Ki [3] | Ki [4] | Ki [5] | Ki [6] | Ki [7] | Ki (human Factor Xa) | Ki [8] | Ki [9] | FXa/thrombin ratio (thrombin and FXa)
NCc1ccc(Cl)cc1CNC(=O)[C@@H]1CCCN1C(=O)[C@@H](CC(=O)N1CCCCC1)NS(=O)(=O)Cc1ccccc1 [Compound 2.41] | > 100 µM | 605 nM | > 80 µM | > 15 µM | > 50 µM | > 50 µM | 8 µM | 0.12 nM | 0.11 nM | > 40 µM | –
NCc1ccc(Cl)cc1CNC(=O)[C@@H]1CCCN1C(=O)[C@@H](CCC(=O)N1CCOCC1)NC(=O)Cc1ccccc1 [Compound 2.42] | > 10 µM | > 50000 nM | > 100 µM | > 50 µM | > 100 µM | > 20 µM | > 50 µM | 965 nM | 88 nM | > 20 µM | –
NCc1ccc(Cl)cc1CNC(=O)[C@@H]1CCN1C(=O)[C@@H](CCC(=O)N1CCOCC1)NS(=O)(=O)Cc1ccccc1 [Compound 2.43] | > 100 µM | 5810 nM | > 80 µM | > 80 µM | > 20 µM | > 30 µM | > 40 µM | 1.7 nM | 9.7 nM | > 10 µM | –
NCc1ccc(Cl)cc1CNC(=O)[C@@H]1CCN1C(=O)[C@@H](CC(=O)N1CCOCC1)NS(=O)(=O)Cc1ccccc1 [Compound 2.44] | > 100 µM | 1830 nM | > 100 µM | > 35 µM | > 50 µM | > 100 µM | > 10 µM | 0.87 nM | 4 nM | > 20 µM | –
NCc1ccc(Cl)cc1CNC(=O)[C@@H]1CCN1C(=O)[C@@H](CC(=O)N1CCCCC1)NS(=O)(=O)Cc1ccccc1 [Compound 2.45] | > 100 µM | 1860 nM | > 100 µM | > 20 µM | > 20 µM | > 30 µM | > 20 µM | 0.22 nM | 0.72 nM | > 10 µM | –
NCc1ccc(Cl)cc1CNC(=O)[C@@H]1CCCN1C(=O)[C@@H](CC(=O)O)NS(=O)(=O)Cc1ccccc1 [Compound 2.46] | > 40 µM | > 50000 nM | > 50 µM | > 50 µM | > 50 µM | > 100 µM | > 10 µM | 1320 nM | 12.2 nM | > 20 µM | –
CN(CC1CCOCC1)C(=O)C[C@@H](NS(=O)(=O)Cc1ccccc1)C(=O)N1CCC[C@H]1C(=O)NCc1cc(Cl)ccc1CN [Compound 2.47, Bzls-D-Asp((tetrahydro-2H-pyran-4-yl)-N-methylmethanamine)-L-Pro-Amb(2-AMe-5-Cl)×2 TFA] | > 100 µM | 304 nM | > 100 µM | > 50 µM | > 100 µM | > 10 µM | > 15 µM | 2 nM | 0.32 nM | > 20 µM | –
NCc1ccc(Cl)cc1CNC(=O)[C@@H]1CCCN1C(=O)[C@H](N)CCC(=O)N1CCOCC1 [Compound 2.49, H-D-Glu(morpholino)-L-Pro-Amb(2-AMe-5-Cl)×2 TFA] | > 10 µM | > 10000 nM | > 100 µM | > 100 µM | > 100 µM | > 10 µM | > 100 µM | 134 nM | 8 nM | > 100 µM | –
NCc1ccc(Cl)cc1CNC(=O)[C@@H]1CCN1C(=O)[C@@H](CC(=O)N1CCNCC1)NS(=O)(=O)Cc1ccccc1 [Compound 2.50, Bzls-D-Asp(piperazinyl)-L-Aze-Amb(2-AMe-5-Cl)×2 TFA] | > 100 µM | 3340 nM | > 100 µM | > 20 µM | > 25 µM | > 100 µM | > 15 µM | 5.2 nM | 14 nM | > 100 µM | –
Cc1cccc(S(=O)(=O)Nc2ccc(C)n(CC(=O)NCCON=C(N)N)c2=O)c1 [RWJ445167] | – | – | – | – | – | – | – | – | – | – | < 0.02
Cn1c(CNc2ccc(C(=N)N)cc2)nc2cc([C@@](C)(NCC(=O)O)C(=O)N3CCCC3)ccc21 [Tanogitran] | – | – | – | – | – | – | – | – | – | – | 0.1
